Test results published in patent US20260102460A1, “NOVEL COMBINATIONS OF ANTIBIOTICS AND NON-ANTIBIOTIC DRUGS EFFECTIVE IN VIVO AGAINST GRAM-POSITIVE BACTERIA, IN PARTICULAR METHICILLIN-RESISTANT S. AUREUS (MRSA)” (EUROPEAN MOLECULAR BIOLOGY LABORATORY, priority 2022, published 2026).
“Also recorded” adds a separate entry of the source.

Key:
S. aureus DSM 20231 = assay: Adjuvant (extended non-antibiotic) combination screen; format: cell-based, Staphylococcus aureus; conditions: S. aureus DSM 20231; original and extended non-antibiotic screen (FIG. 4d); 4×4 dose matrix
Method: (§1) MICs were tested in all strains for the main screen. Drugs were two-fold serially diluted in 11 concentrations, and 32 no-drug control wells were included in each plate. Experiments were conducted in 384-well plates (ref. 781271 by Greiner BioOne), with a total volume of 30 μl for S. aureus and B. subtilis and 55 μl for S. pneumoniae. Volumes were optimized for each strain to achieve good dynamic range for growth and minimize risk of cross-contamination between wells. Plates were inoculated with a starting optical density at 595 nm (OD595 nm) of 0.01 from an overnight culture. All liquid handling was performed using a Biomek FX liquid handler (Beckman Coulter). Plates were sealed with breathable membranes and incubated at 37° C. OD595 nm was measured every 30 minutes for 14 hours. The MIC was considered as the first concentration at which growth was inhibited. Experiments were conducted in biological duplicates. For the adjuvant screen, antibiotics were tested in S. aureus DSM 20231 at the same concentrations as for the main screen. Non-antibiotics concentrations were selected to fall within therapeutic ranges.
(§2) 62 drugs, hereafter designated as recipients, were arrayed in 384-well plates (ref. 781271 by Greiner BioOne) in three two-fold serial dilutions and two technical replicates. Concentrations were selected according to MICs, with the highest concentration corresponding to the MIC, and the intermediate and lowest concentration corresponding to ½ and ¼ MIC, respectively. Plates were kept frozen and defrosted upon each experimental run, when the same 62 drugs and in the same three concentrations were added as donor drugs (one drug at one concentration for each recipient plate). A few drugs were screened only as donors: the combinations co-amoxiclav and cotrimoxazole in B. subtilis and S. aureus DSM 20231; co-amoxiclav, clavulanic acid, pseudomonic acid and cefuroxime in S. aureus Newman. All donor drugs were tested in two biological replicates. Control wells were included in each plate (six no-drug wells, three plain medium wells and three wells containing only the donor drug). After the addition of donor drugs, plates were inoculated with cells. Handling, inoculation, growth conditions, plate incubation and OD595 nm measurements were performed as for the MIC determination.
For the adjuvant screen, 44 non-antibiotic drugs were tested against the same recipient drugs of the main screen for S. aureus DSM 20231.
The inventors selected 44 drugs to include pharmaceuticals that can be co-administered with antibiotics in S. aureus infections or non-antibiotics with previously reported antibacterial activity against S. aureus. […] Interactions were scored and benchmarked as for the main screen (Methods).

S. aureus (two strains) = assay: High-throughput screen of drug combinations (4×4 broth microdilution checkerboard, Bliss scores); format: cell-based, Staphylococcus aureus; conditions: for drug-drug interaction (synergy / antagonism, Bliss model): S. aureus Newman and DSM 20231, fitness from OD595nm at 8 h, synergy = first quartile of Bliss scores <−0.1, antagonism = third quartile >0.1, FDR <0.05
Method: as §1, §2

[1] = tested on: multi-drug resistant E. coli isolates; conditions: vanillin paired with spectinomycin; Gram-negative pathogenic and multi-drug resistant E. coli isolates; cited from earlier work
[2] = tested on: S. aureus Newman dltABCD and tagG IPTG-inducible knockdown mutants; assay: Gentamicin and nisin MIC in dltABCD and tagG knockdown mutants; format: cell-based, Staphylococcus aureus; conditions: dltABCD operon and tagG knockdown, 500 μM IPTG, versus control strain MM76
Text: A two-plasmid CRISPR interference system was used to knock down gene expression of selected genes in S. aureus Newman. In these strains, dcas is expressed from an IPTG-inducible promoter on plasmid pLOW, while sgRNAs are expressed from a constitute promoter on a plasmid derived from pCG248. The sgRNA-target sequences were […] (SEQ ID NO. 1) for dltABCD and […] (SEQ ID NO. 2) for tagG, and […] (SEQ ID NO. 3) for the non-target control MM76.
For gentamicin and nisin MIC measurements, dltABCD and tagG IPTG-inducible knockdown mutants (Methods) were grown in two-fold dilutions of nisin and gentamicin, in presence of erythromycin (5 μg/ml) and chloramphenicol (10 μg/ml) for plasmid maintenance. IPTG (500 μM) was used to achieve maximal knockdown of the gene targeted. The parent S. aureus Newman and the control strain MM76 (Methods) were included in all experiments, and experiments were conducted in four biological replicates, in 384-well plates (ref. 781271 by Greiner BioOne). For each plate, the inventors identified the time point where the control strain MM76 (in presence of erythromycin, chloramphenicol and IPTG at the above-mentioned concentrations) reached plateau, defined as the first time point before no increase was detected in log 10 (OD595 nm) values of two consecutive time points. […]

MDR S. aureus isolates = conditions: Mueller-Hinton broth (MHB), 22 h; cited from earlier work

CC(=O)Oc1ccccc1C(=O)O [acetylsalicylic acid]
interactions between non-antibiotic drug and antibiotics (synergy / antagonism, Bliss model) (S. aureus DSM 20231): synergy with cefuroxime; also recorded: antagonisms with ciprofloxacin, oxacillin and azithromycin

O=C(O)[C@H]1/C(=C/CO)O[C@@H]2CC(=O)N21 [clavulanic acid]
drug-drug interaction (synergy / antagonism, Bliss model) (S. aureus (two strains)): a number of synergies with other drugs

CCN(CC)CCOc1ccc(C(=C(Cl)c2ccccc2)c2ccccc2)cc1 [clomifene]
interactions between non-antibiotic drug and antibiotics (synergy / antagonism, Bliss model) (S. aureus DSM 20231): synergies with cell-wall acting drugs; also recorded: antagonism with streptomycin

C[C@@H]1O[C@@H]1P(=O)(O)O [fosfomycin]
drug-drug interaction (synergy / antagonism, Bliss model) (S. aureus (two strains)): strongly synergized with a diverse range of protein-synthesis inhibitors (lincosamides, oxazolidinones, streptomycin); also recorded: synergized with almost all classes of translation inhibitors, including macrolides, tetracyclines and spectinomycin

CN(C)C(=O)C(CCN1CCC(O)(c2ccc(Cl)cc2)CC1)(c1ccccc1)c1ccccc1 [loperamide]
drug-drug interaction (synergy / antagonism, Bliss model) (S. aureus (two strains)): broad antagonism with macrolides
rank by number of interactions with antibiotics (S. aureus (two strains); the inventors' screen): highest number of interactions with antibiotics

COc1cc(Cc2cnc(N)nc2N)cc(OC)c1OC [trimethoprim]
drug-drug interaction (synergy / antagonism, Bliss model) (S. aureus (two strains)): a number of synergies with other drugs

COc1cc(C=O)ccc1O [vanillin]
inhibitory effect on growth [1]: surprisingly strong inhibitory effect on the growth

gentamicin
change of MIC in CRISPRi knockdown mutants [2]: decrease

nisin
change of MIC in CRISPRi knockdown mutants [2]: decrease

teicoplanin
killing by single drug (MDR S. aureus isolates): complete killing
